Measured values reported in ChEMBL document CHEMBL3045439, “Isoforms of the heteropteran Nezara viridula ecdysone receptor: protein characterisation, RH5992 insecticide binding and homology modelling” (Pest Manag Sci, 2011).

Key:
Type in all cases: protein-complex assay
Ecdysone receptor [1] = molecular target: T1, Ecdysone receptor (Spodoptera frugiperda, UniProt Q8MWR1+Q8MWR2); assay: Binding affinity to Spodoptera frugiperda (fall armyworm) EcR
T1 sequence (Q8MWR2 whole entry): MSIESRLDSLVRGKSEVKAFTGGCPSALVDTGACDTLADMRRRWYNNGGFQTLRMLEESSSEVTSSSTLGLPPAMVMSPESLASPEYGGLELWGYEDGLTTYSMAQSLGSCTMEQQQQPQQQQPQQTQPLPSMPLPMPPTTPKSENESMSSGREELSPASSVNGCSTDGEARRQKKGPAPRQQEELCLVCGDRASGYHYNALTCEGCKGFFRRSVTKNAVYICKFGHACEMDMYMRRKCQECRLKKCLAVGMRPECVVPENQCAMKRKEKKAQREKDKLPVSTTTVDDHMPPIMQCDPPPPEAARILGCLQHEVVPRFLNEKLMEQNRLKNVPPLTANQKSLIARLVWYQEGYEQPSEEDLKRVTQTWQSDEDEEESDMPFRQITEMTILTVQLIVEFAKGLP
T1 sequence (Q8MWR1 whole entry): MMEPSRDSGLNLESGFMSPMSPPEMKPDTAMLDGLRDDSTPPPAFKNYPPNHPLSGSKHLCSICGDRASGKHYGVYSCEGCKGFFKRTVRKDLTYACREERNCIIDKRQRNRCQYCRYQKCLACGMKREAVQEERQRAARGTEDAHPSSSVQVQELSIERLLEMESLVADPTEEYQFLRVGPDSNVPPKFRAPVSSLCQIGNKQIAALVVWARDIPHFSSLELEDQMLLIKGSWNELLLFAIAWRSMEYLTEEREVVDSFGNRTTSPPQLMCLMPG

Ecdysone receptor [2] = molecular target: Ecdysone receptor (Bemisia tabaci, UniProt A3EZJ4+A3EZJ5); assay: Binding affinity to Bemisia tabaci (sweet potato whitefly) ecdysone receptor (EcR)
Sequence of Ecdysone receptor (Bemisia tabaci, UniProt A3EZJ4+A3EZJ5) (A3EZJ4 1-297): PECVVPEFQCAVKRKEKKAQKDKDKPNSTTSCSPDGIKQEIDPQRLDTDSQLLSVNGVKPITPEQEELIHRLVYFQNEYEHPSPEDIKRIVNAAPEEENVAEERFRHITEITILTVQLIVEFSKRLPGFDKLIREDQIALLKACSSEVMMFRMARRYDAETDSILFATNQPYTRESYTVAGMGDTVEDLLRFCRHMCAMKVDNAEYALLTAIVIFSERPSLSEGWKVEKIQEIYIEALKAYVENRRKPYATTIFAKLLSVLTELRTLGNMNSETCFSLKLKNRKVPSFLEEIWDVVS
Sequence of Ecdysone receptor (Bemisia tabaci, UniProt A3EZJ4+A3EZJ5) (A3EZJ5 1-251): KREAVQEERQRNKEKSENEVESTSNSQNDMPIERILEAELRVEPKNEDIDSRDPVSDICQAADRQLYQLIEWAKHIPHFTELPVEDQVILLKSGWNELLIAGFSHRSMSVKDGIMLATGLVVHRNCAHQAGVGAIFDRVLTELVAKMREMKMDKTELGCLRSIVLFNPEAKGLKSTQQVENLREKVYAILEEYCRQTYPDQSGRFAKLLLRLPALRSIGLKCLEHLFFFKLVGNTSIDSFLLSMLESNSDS

Ecdysone receptor [3] = molecular target: T2, Ecdysone receptor (Chilo suppressalis, UniProt Q8I1M8+Q8MYA6); assay: Binding affinity to Chilo suppressalis (rice stem borer) EcR
T2 sequence (Q8MYA6 whole entry): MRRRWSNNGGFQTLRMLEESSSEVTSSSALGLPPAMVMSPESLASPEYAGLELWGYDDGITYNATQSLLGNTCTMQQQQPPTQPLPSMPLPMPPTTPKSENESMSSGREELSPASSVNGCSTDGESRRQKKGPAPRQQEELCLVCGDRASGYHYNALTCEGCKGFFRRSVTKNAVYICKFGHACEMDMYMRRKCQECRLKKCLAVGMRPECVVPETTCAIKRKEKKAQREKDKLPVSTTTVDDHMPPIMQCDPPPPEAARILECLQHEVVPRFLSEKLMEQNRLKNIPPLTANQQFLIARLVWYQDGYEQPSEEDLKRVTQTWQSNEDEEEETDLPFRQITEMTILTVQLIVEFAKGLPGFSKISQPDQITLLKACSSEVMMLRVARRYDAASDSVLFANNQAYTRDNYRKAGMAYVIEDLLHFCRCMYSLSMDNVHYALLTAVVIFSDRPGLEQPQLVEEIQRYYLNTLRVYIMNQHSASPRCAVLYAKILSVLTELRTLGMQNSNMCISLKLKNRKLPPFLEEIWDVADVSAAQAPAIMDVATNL
T2 sequence (Q8I1M8 whole entry): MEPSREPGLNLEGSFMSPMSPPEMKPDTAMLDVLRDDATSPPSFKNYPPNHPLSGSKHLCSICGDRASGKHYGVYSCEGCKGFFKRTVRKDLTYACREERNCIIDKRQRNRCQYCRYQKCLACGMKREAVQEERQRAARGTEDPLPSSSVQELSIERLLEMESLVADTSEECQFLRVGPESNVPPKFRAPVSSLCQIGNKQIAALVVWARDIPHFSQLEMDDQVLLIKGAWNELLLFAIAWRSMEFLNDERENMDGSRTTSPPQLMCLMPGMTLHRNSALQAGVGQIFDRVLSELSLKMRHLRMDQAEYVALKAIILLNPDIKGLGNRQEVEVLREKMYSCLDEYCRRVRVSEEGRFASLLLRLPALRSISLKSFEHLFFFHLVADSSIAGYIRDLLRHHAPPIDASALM

IC50 (Ecdysone receptor [1]) [µM]	SMILES	Ki (Ecdysone receptor [2]) [µM]	Ki (Ecdysone receptor [3]) [µM]
0.166	CC(C)(O)CC[C@@H](O)[C@](C)(O)[C@H]1CC[C@@]2(O)C3=CC(=O)[C@@H]4C[C@@H](O)[C@@H](O)C[C@]4(C)[C@H]3CC[C@]12C [20-HYDROXYECDYSONE]	–	–
–	CCc1ccc(C(=O)NN(C(=O)c2cc(C)cc(C)c2)C(C)(C)C)cc1 [TEBUFENOZIDE]	> 501	0.00126
